Reference: PMC11054906 (Pharmaceuticals, 2024)

Experiments:
[1] = Population PK analysis (NLME, Monolix) of empagliflozin plasma concentrations from two phase 1 crossover studies; assay type: in vivo, healthy Korean subjects
Text: Data from two clinical studies (NCT03849495 and NCT03848637) were used in this study to develop the PK model and conduct population PK analysis. Both of the studies were randomized, open-label, two-period, two-sequence, crossover studies comparing the PK characteristics, safety and tolerability profiles of the two study drugs in healthy Korean subjects. Healthy subjects aged between 19 and 50 years with BMIs of 18–27 kg/m^2 were recruited for both studies. Subjects without any clinically significant medical history, and without any clinically significant findings in physical examinations, vital signs, 12-lead electrocardiograms (ECG), and clinical laboratory test results were eligible for the studies. Subjects who could not abstain from alcohol, smoking, or drug use throughout the study were excluded. To ensure safety, subjects with any allergies to the study medications were also excluded. Adverse drug reactions were assessed throughout the study period, and the monitoring of physical examinations, vital signs, 12-lead ECG, and laboratory tests was also performed.
Demographic data, clinical laboratory data, and time–plasma concentration data were pooled to develop a population PK model.
Blood samples were collected before drug administration (0 h) and 0.33 h, 0.67 h, 1 h, 1.5 h, 2 h, 2.5 h, 3 h, 4 h, 6 h, 8 h, 10 h, 12 h, 24 h, 34 h, and 48 h after study’s drug administration in the first study. In the second study, blood samples were also collected at 3.5 h and 5 h. Thus, a total of 16 and 18 blood samples were collected from each healthy volunteer in the two clinical studies, respectively. […] In the second study, the plasma concentrations of empagliflozin were quantified by using liquid chromatography–mass spectrometry (LC–MS) equipped with API 4000 (SCIEX; multiple reaction monitoring, electrospray ionization, and positive SCIEX mode). All experiments adhered to the standards of good laboratory practice as described previously. The calibration ranges in these two studies were 2–1500 ng/mL and 0.5–150 ng/mL, respectively.
The population PK analysis was conducted using a nonlinear mixed effect (NLME) modeling method with Monolix® Suite 2021R1 (Lixoft, Antony, France). The stochastic approximation expectation maximization (SAEM) algorithm was implemented, and model qualification was performed using a likelihood ratio test, Bayesian information criterion (BIC), goodness-of-fit (GOF) diagnostic plots, and visual predictive checks (VPCs). Various compartment models with lag time, transit compartment, and Weibull absorption were established to construct the base PK model.
After the development of the base model, interindividual variability (IIV), interoccasion variability (IOV), and residual errors were added to the model. Because of the crossover study design, the random variation in the population PK parameters was described by both the IIV and IOV, with all the individual parameters considered to be log-normally distributed. IIV and IOV were sequentially implemented, and the parameters were subsequently removed or fixed at low values when converging to zero. The exponential random effects terms for the IIV and IOV are shown in Formulas (2) and (3), respectively. (2) Pi=θk×e^ηi where Pi represents the parameter value k from individual i and θk describes the population value of parameter k. ηi denotes the difference between Pi and θk. (3) Pi,occ=θk×e^ηi+Kkiq where Pi,occ is the individual parameter value k from individual i at occasion q that differs from the typical individual value by an additional random effect Kkiq. An occasion was characterized as the time period from the start of an infusion until the start of the next administration. ηki and Kkiq were assumed to be symmetrically distributed with a zero mean and a variance of σ^2 and γ^2, respectively. […]

[2] = design: method as in PMID 23940010, PMID 27312794, PMID 29251772, PMID 24964723; conditions: cited from earlier work
[3] = 1000 bootstrap resampling, interindividual variability
[4] = 1000 bootstrap resampling, interoccasion variability
[5] = final model, oral single dose, both formulations pooled

OC[C@H]1O[C@@H](c2ccc(Cl)c(Cc3ccc(O[C@H]4CCOC4)cc3)c2)[C@H](O)[C@@H](O)[C@@H]1O [empagliflozin, Empagliflozin]
CL, median of bootstrap (95% CI) ([1]; 1000 bootstrap resampling): 8.21 (7.945–8.465) L/h | Ka, median of bootstrap (95% CI) ([1]; 1000 bootstrap resampling): 0.25 (0.23–0.275) h^−1 | Ktr, median of bootstrap (95% CI) ([1]; 1000 bootstrap resampling): 8.94 (6.766–11.728) h^−1 | Mtt, median of bootstrap (95% CI) ([1]; 1000 bootstrap resampling): 0.64 (0.526–0.725) h | Q, median of bootstrap (95% CI) ([1]; 1000 bootstrap resampling): 4.66 (3.979–5.456) L/h | V1, median of bootstrap (95% CI) ([1]; 1000 bootstrap resampling): 0.64 (0–1.889) L | V2, median of bootstrap (95% CI) ([1]; 1000 bootstrap resampling): 43.93 (41.255–47.171) L | b (residual variability), median of bootstrap (95% CI) ([1]; 1000 bootstrap resampling): 0.16 (0.141–0.175) | βCL_logWT, median of bootstrap (95% CI) ([1]; 1000 bootstrap resampling): 0.64 (0.366–0.926) | βV2_logWT, median of bootstrap (95% CI) ([1]; 1000 bootstrap resampling): 0.54 (0.221–0.851) | ωCL, median of bootstrap (95% CI) [1, 3]: 0.12 (0.101–0.141) | ωKa, median of bootstrap (95% CI) [1, 3]: 0.16 (0.116–0.208) | ωV2, median of bootstrap (95% CI) [1, 3]: 0.13 (0.1–0.172) | γCL, median of bootstrap (95% CI) [1, 4]: 0.04 (0.025–0.06) | γKa, median of bootstrap (95% CI) [1, 4]: 0.04 (0.023–0.062) | γKtr, median of bootstrap (95% CI) [1, 4]: 1.11 (0.858–1.334) | γMtt, median of bootstrap (95% CI) [1, 4]: 0.44 (0.359–0.528) | b, residual variability (proportional error) ([1]; final model): 0.16 | βV2_logWT (effect of log-transformed body weight on V2) ([1]; final model, covariate coefficient): 0.57 | Ktr (transit rate constant), population value ([1]; final model, oral single dose 25 mg or 5 mg (with metformin 1000 mg), both formulations pooled): 9.19 h⁻¹ | CL (clearance), population value [1, 5]: 8.21 L/h | Ka (absorption rate constant), population value [1, 5]: 0.26 h⁻¹ | Mtt (mean transit time for absorption), population value [1, 5]: 0.63 h | V1, population value [1, 5]: 0.6 L | Mtt (mean transit time) ([1]; final two-compartment transit model): 37.8 min | number of transit compartments ([1]; from Formula (1), Mtt and Ktr of the final model): 4.79 | γCL, interoccasion variability ([1]; presented as SD (CV)): 4.3% | γKa, interoccasion variability ([1]; presented as SD (CV)): 0.029 (2.90) % | γKtr, interoccasion variability ([1]; presented as SD (CV)): 1.17 (171.20) % | γMtt, interoccasion variability ([1]; presented as SD (CV)): 0.42 (43.92) % | ωCL, interindividual variability ([1]; presented as SD (CV)): 0.12 (12.04) % | ωV2, interindividual variability ([1]; presented as SD (CV)): 0.13 (13.06) % | estimated Mtt ([2]; three transit compartment model): 30 min | lag time (fixed) of lagged first-order oral absorption ([2]; two-compartment model): 0.5 h
